Consider 32 compounds from article PMC7529893, “Structural basis for substrate recognition and chemical inhibition of oncogenic MAGE ubiquitin ligases” (Nature Communications, 2020).

In brackets after ≈: the same amount, converted by molar mass. Read-outs that look alike come from different tables or passages of the source.

The target of series [1] is T1, MAGE-A11:PCF11 interaction (GST-MAGE-A11 MHD and FAM-PCF11_4) (Homo sapiens, UniProt P43364).
T1 construct: GST-MAGE-A11 MHD (human MAGE-A11 MHD amino acid 218-429); made in house; host or cells: E. coli BL21(DE3)
T1 sequence (P43364 218-429): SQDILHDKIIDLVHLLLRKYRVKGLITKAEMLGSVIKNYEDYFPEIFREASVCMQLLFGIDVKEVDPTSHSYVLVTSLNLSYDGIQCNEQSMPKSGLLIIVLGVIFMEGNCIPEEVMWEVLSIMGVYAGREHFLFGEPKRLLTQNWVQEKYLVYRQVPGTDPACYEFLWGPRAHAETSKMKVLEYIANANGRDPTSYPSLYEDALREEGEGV
As to the kind of experiment: TR-FRET dose response test of compounds for disruption of MAGE-A11:PCF11 binding. In short, it runs like this: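 Competition of compounds against binding of FAM-PCF11_4 peptide to GST-MAGE-A11 MHD, detected with Tb-anti-GST, in 50 mM Tris pH 7.5, 20 mM MgCl2, 0.1 mg/ml BSA, 1 mM DTT. 90 min at ~25 °C; 520/490 nm emission ratio (340 nm excitation) fitted for IC50.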
In general terms: Time-resolved FRET reads energy transfer from a long-lived donor to a nearby acceptor.

Series [2] can be described thus: Solubility assay (μSOL Evolution). As to conditions: 18 h at RT; for solubility at 18 h: citrate phosphate-buffered saline (isotonic) with 1% DMSO. Format: physicochemical. As to the method:
Solubility assays were carried out on a Biomek FX lab automation workstation (Beckman Coulter, Inc., Fullerton, CA) using μSOL Evolution software (pION Inc., Woburn, MA). The detailed method is described as follows. 10 µl of 10 mM compound stock (in DMSO) was added to 190 μl 1-propanol to make a reference stock plate. In total, 5 µl from this reference stock plate were mixed with 70 µl 1-propanol and 75 µl citrate phosphate-buffered saline (PBS; isotonic) to make the reference plate, and the UV spectrum (250–500 nm) of the reference plate was read. In total, 6 µl of 10 mM test compound stock was added to 594 µl buffer in a 96-well storage plate and mixed. The storage plate was sealed and incubated at RT for 18 h. The suspension was then filtered through a 96-well filter plate (pION Inc., Woburn, MA). In all, 75 µl of filtrate was mixed with 75 µl 1-propanol to make the sample plate, and the UV spectrum of the sample plate was read. Calculations were carried out with μSOL Evolution software based on the area under the curve (AUC) of the UV spectrum of the sample and reference plates. All compounds were tested in triplicate.

A short description of series [3]: High throughput Caco-2 permeability. Format: in vitro ADME. As to conditions: human, Caco-2, pH 7.4, 10 µmol/l, 2 h; for Papp A→B at 2 h, 10 µmol/l: apical to basolateral; for Papp B→A at 2 h, 10 µmol/l: basolateral to apical. The protocol: (§1) High throughput Caco-2 permeability was performed in the TranswellR 0.4 µm polycarbonate membrane 96-well system with modified methods. Caco-2 cells were maintained at 37 °C in a humidified incubator with an atmosphere of 5% CO2. The cells were cultured in 75 cm^2 flasks with Dulbecco’s Modified Eagle’s Medium (DMEM) containing 10% (v/v) FBS, 1% (v/v) non-essential amino acids (NEAA), 100 units/ml of penicillin, and 100 µg/ml of streptomycin. The Caco-2 cells were seeded onto inserts at a density of 2 × 10^4 cells/insert separately. The medium in the wells was exchanged each other day, and the trans epithelial electrical resistance (TEER) value was measured using an epithelial voltohm meter (Millipore, Billerica, Massachusetts). […] For transport experiments, each cultured monolayer on the 96-well plate was washed twice with a transport buffer (HBSS containing 25 mM HEPES, pH 7.4). The permeability assay was initiated by the addition of each compound solution (10 µmol/l) into inserts (apical side, A) or receivers (basolateral side, B). The Caco-2 cell monolayers were incubated for 2 h at 37 °C. Fractions were collected from receivers (if apical to basal permeability) or inserts (if basal to apical permeability), and concentrations were assessed by UPLC/MS (Waters; Milford, MA). All compounds were tested in triplicates. The A → B (or B → A) apparent permeability coefficients (Papp) of each compound were calculated using the equation, Papp = dQ/dt × 1/AC0, where dQ/dt equals the flux of a drug across the monolayer, A equals the total insert well surface area, and C0 is the initial concentration of substrate in the donor compartment. The efflux ratio was determined by dividing the Papp in the B-A direction by the Papp in the A-B direction.
(In general: Caco-2 monolayers are a common model of the intestinal barrier.)

The next series has as its system Caco-2 cells. Nature of the series: High throughput Caco-2 permeability. In kind it is in vitro ADME. As to conditions: 10 µmol/l, 2 h; for Papp A→B: apical to basolateral; for Papp B→A: basolateral to apical. The protocol: as §1
The mark [4] stands for this setting: Supplementary Data 4, read-out: TR-FRET, IC50.
Setting [5] is: Dose response TR-FRET screening of nine scaffold groups against MAGE-A11:PCF11, read-out: consensus IC50.
[6] abbreviates: Supplementary Data 3, 59 quinoline compounds, read-out: TR-FRET IC50.

One may read the IC50 as the point on the concentration scale where inhibition reaches its midpoint. The term solubility denotes the dissolved amount per volume that the medium holds. Low values mean a poorly soluble substance, high ones a readily soluble substance. As usually defined, the Papp A→B is the apparent permeability from the apical to the basolateral side of a cell layer. By Papp B→A is commonly meant how fast a substance crosses the layer from the basolateral side. As for `FC(F)(F)c1cc(-c2ccc3c(NCCCNCc4ccco4)ccnc3c2)cc(C(F)(F)F)c1` [SJ000311270-01, FC(F)(F)c1cc(cc(c1)C(F)(F)F)c2ccc3c(NCCCNCc4occc4)ccnc3c2], the IC50 in series [1] (setting [4]) is 0.58 µM. Moreover, the solubility at 18 h in series [2] came out at 61.1 µM (≈ 30.1 µg/mL). In series [3], this compound returned a Papp A→B at 2 h, 10 µmol/l of 0.326 ×10⁻⁶ cm/s and a Papp B→A at 2 h, 10 µmol/l of 0.079 ×10⁻⁶ cm/s. As for `CC(C)(C)c1ccc(-c2ccc3c(NCCCNCc4ccco4)ccnc3c2)cc1` [SJ000311286-01, CC(C)(C)c1ccc(cc1)c2ccc3c(NCCCNCc4occc4)ccnc3c2], the IC50 in series [1] (setting [4]) stood at 1.16 µM. In series [2], this compound came in with a solubility at 18 h of 56.2 µM (≈ 23.2 µg/mL). In series [3], this compound displayed a Papp A→B at 2 h, 10 µmol/l of 0.578 ×10⁻⁶ cm/s and a Papp B→A at 2 h, 10 µmol/l of 0.12 ×10⁻⁶ cm/s. Broadly, the Solubility is the concentration that dissolves in the medium under given conditions. Lower therefore signals a poorly soluble substance. `FC(F)(F)c1ccc2c(NCCCNCc3ccc4c(c3)OCO4)ccnc2c1` [SJ000361106-02]: the “Solubility” value in series [2] is 128.74 µM (≈ 51.9 µg/mL). In the series on Caco-2 cells, this compound returned a Papp A→B of 47 ×10⁻⁶ cm/s and a Papp B→A of 40 ×10⁻⁶ cm/s. For `FC(F)(F)c1ccc2c(NCCCNCc3ccco3)ccnc2c1` [SJ000361113-02], the IC50 in series [1] (setting [4]) was above 70 µM. The “Solubility” value in series [2] stood at 119.10 µM (≈ 41.6 µg/mL). In the series on Caco-2 cells, this compound came in with a Papp A→B of 50.2 ×10⁻⁶ cm/s and a Papp B→A of 40.1 ×10⁻⁶ cm/s.

In the case of `Clc1ccc2c(NCCCNCc3ccc4[nH]ccc4c3)ccnc2c1` [SJ000520909-03], the IC50 in series [1] (setting [4]) was 0.24 µM. Moreover, in series [2], the “Solubility” value is 59.80 µM (≈ 21.8 µg/mL). Besides, in the series with Caco-2 cells, the Papp A→B came out at 19.6 ×10⁻⁶ cm/s and the Papp B→A came to 21.3 ×10⁻⁶ cm/s.

Regarding `CCOc1ccc(N(C(C)=O)C2=C(N)C(=O)c3ccccc3C2=O)cc1` [SJ000558312-2], in series [1] (setting [5]), the IC50 came to 65.7 µM. In the case of `NC1=C(Nc2ccccc2)C(=O)c2ccccc2C1=O` [SJ000562543-1], the IC50 in series [1] (setting [5]) was 60.8 µM. In the case of `Cc1ccccc1NC1=C(N)C(=O)c2ccccc2C1=O` [SJ000562551-1], the IC50 in series [1] (setting [5]) was above 70 µM. Turning to `Cc1ccc(NC2=C(N)C(=O)c3ccccc3C2=O)cc1` [SJ000562618-1], the IC50 in series [1] (setting [5]) is 60.6 µM. On the same count and under the same terms, the value for `CCCCCCCCOc1ccc(NC2=C(N)C(=O)c3ccccc3C2=O)cc1` [SJ000562629-1] was 54.8 µM; that for `NC1=C(Nc2ccc(Cl)cc2)C(=O)c2ccccc2C1=O` [SJ000562630-1] was 53.8 µM; that for `Cc1cc(C)cc(NC2=C(N)C(=O)c3ccccc3C2=O)c1` [SJ000562641-1] was 55 µM. With `COc1cc(NCc2ccc3nc(N)nc(N)c3c2C)cc(OC)c1OC` [SJ000574313-7], the IC50 in series [1] (setting [5]) amounted to 9.46 µM. For `CCCN(CCCNc1ccnc2cc(C(F)(F)F)ccc12)Cc1ccc2[nH]ccc2c1` [SJ000575171-1, CCCN(CCCNc1ccnc2cc(ccc12)C(F)(F)F)Cc3ccc4[nH]ccc4c3], in series [1] (setting [6]), the IC50 amounted to 33.2 µM. For `Clc1ccc2c(NCCCNCc3ccc[nH]3)ccnc2c1` [SJ000575192-1, Clc1ccc2c(NCCCNCc3ccc[nH]3)ccnc2c1], in series [1] (setting [6]), the IC50 was determined as 22.8 µM. As for `O=C1c2ccccc2NC(c2ccc(F)cc2F)N1CCCN1CCOCC1` (stereo not shown) [SJ000795275-1], in series [1] (setting [5]), the IC50 is 67.8 µM. On the same count and under the same terms, the value for `O=C1c2ccccc2NC(c2ccc(F)c(F)c2)N1CCCN1CCOCC1` (stereo not shown) [SJ000803757-1] was 58.4 µM; that for `CCCOc1ccc(C2Nc3ccccc3C(=O)N2CCCN2CCOCC2)cc1` (stereo not shown) [SJ000803758-1] was above 70 µM; that for `CCOc1ccc(C2Nc3ccccc3C(=O)N2CCCN2CCOCC2)cc1` (stereo not shown) [SJ000803759-1] was 67.7 µM.

Turning to `COc1ccc(C2Nc3ccccc3C(=O)N2CCCN2CCOCC2)cc1OC(F)F` (stereo not shown) [SJ000803760-1], the IC50 in series [1] (setting [5]) is above 70 µM. On to `Cc1cc(C)c(C2Nc3ccccc3C(=O)N2CCCN2CCOCC2)cc1C` (stereo not shown) [SJ000803761-1], for which the IC50 in series [1] (setting [5]) was determined as 62.3 µM. Still for that read-out and setting: the figure for `CSc1ccc(C2Nc3ccccc3C(=O)N2CCCN2CCOCC2)cc1` (stereo not shown) [SJ000803762-1] is above 70 µM; for `COc1ccc2cc(C3Nc4ccccc4C(=O)N3CCCN3CCOCC3)ccc2c1` (stereo not shown) [SJ000803763-1] it is 67.4 µM. Still for that read-out and setting: the value for `O=C1c2ccccc2NC(c2ccc(F)c(Br)c2)N1CCCN1CCOCC1` (stereo not shown) [SJ000803764-1] was 68 µM; that for `CN(C)c1ccc(C2Nc3ccccc3C(=O)N2CCCN2CCOCC2)cc1` (stereo not shown) [SJ000803767-1] was above 70 µM; that for `Cc1ccc(C2Nc3ccccc3C(=O)N2CCCN2CCOCC2)cc1` (stereo not shown) [SJ000803768-1] was 65.9 µM. Consider `CCCn1c(=O)c2[nH]c(-c3ccccc3)nc2n(CCC)c1=O` [SJ000832251-1], for which, in series [1] (setting [5]), the IC50 is above 70 µM. As to `C=CCn1c(=O)c2c(nc(-c3ccccc3)n2C)n(C)c1=O` [SJ000832270-1], the IC50 in series [1] (setting [5]) was above 70 µM. For the compound `Brc1ccc2c(NCCCNCc3ccc4[nH]ccc4c3)ccnc2c1` [SJ001008065-01], the IC50 in series [1] (setting [4]) is 0.62 µM. Also, in series [2], the “Solubility” value was found to be 57.14 µM (≈ 23.4 µg/mL). Moreover, in the series with Caco-2 cells, the Papp A→B worked out at 18.3 ×10⁻⁶ cm/s and the apparent permeability from basolateral to apical (Papp B→A) turned out to be 19.3 ×10⁻⁶ cm/s. `CC(C)(C)c1ccc(-c2ccc3c(NCCCNCc4ccc5[nH]ccc5c4)ccnc3c2)cc1` [SJ001008068-01]: the IC50 in series [1] (setting [4]) was found to be 0.13 µM. In addition, the “Solubility” value in series [2] was determined as 0.67 µM (≈ 0.31 µg/mL). In the series with Caco-2 cells, this compound returned a Papp A→B of 0.368 ×10⁻⁶ cm/s and a Papp B→A of 1.54 ×10⁻⁶ cm/s. The like results for `FC(F)(F)c1cc(-c2ccc3c(NCCCNCc4ccc5[nH]ccc5c4)ccnc3c2)cc(C(F)(F)F)c1` [SJ001008069-01] were, in that order, 0.2 µM, 0.12 µM (≈ 0.0651 µg/mL), 0.498 ×10⁻⁶ cm/s and 0.229 ×10⁻⁶ cm/s. The like results for `C=CC(=O)N(CCCNc1ccnc2ccccc12)Cc1ccc2[nH]ccc2c1` [SJ001009807-01] were, in that order, 3.5 µM, 34.77 µM (≈ 13.4 µg/mL), 2.73 ×10⁻⁶ cm/s and 18.9 ×10⁻⁶ cm/s.
